Results taken from PubChem BioAssay (NCI).
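Step 1: Grow cells in 96-well plates. Step 2: Expose to compound for 48 hours at 5 concentrations. Step 3: Interpolate endpoints linearly; if unreached, use highest concentration. GI50 = concentration required for 50% inhibition of growth. TGI: concentration producing complete growth inhibition.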

Legend:
Assay in all cases: NCI-60 cell line screen, 48 h
COLO 205 colon = test system: COLO 205 colon
HCT-15 colon = test system: HCT-15 colon
HOP-92 NSCLC = test system: HOP-92 NSCLC
K-562 leukemia = test system: K-562 leukemia
M14 melanoma = test system: M14 melanoma
NCI-H226 lung = test system: NCI-H226 lung
OVCAR-8 ovarian = test system: OVCAR-8 ovarian
SF-539 CNS = test system: SF-539 CNS
SR leukemia = test system: SR leukemia
UACC-257 melanoma = test system: UACC-257 melanoma
MDA-N = test system: MDA-N

SMILES	TGI (COLO 205 colon) [µM]	TGI (HCT-15 colon) [µM]	TGI (HOP-92 NSCLC) [µM]	TGI (K-562 leukemia) [µM]	TGI (M14 melanoma) [µM]	TGI (NCI-H226 lung) [µM]	TGI (OVCAR-8 ovarian) [µM]	TGI (SF-539 CNS) [µM]	TGI (SR leukemia) [µM]	TGI (UACC-257 melanoma) [µM]	TGI (MDA-N) [µM]	GI50 (HCT-15 colon) [nM]	GI50 (M14 melanoma) [nM]	GI50 (SF-539 CNS) [nM]	GI50 (UACC-257 melanoma) [nM]
Nc1ncnc2c1sc(=S)n2-c1ccccc1	> 100	> 100	> 100	> 100	> 100	> 100	> 100	> 100	> 100	> 100	–	–	–	–	–
COc1cc(NS(C)(=O)=O)ccc1NCc1cnc2ccc3[nH]cccc3c12	31.3	58.4	93.9	41	31.4	35.6	75.7	42.2	28	32	–	–	–	–	–
COC(=O)c1ccccc1NC(=S)NN(C)C	> 100	> 100	–	> 100	> 100	> 100	> 100	> 100	> 100	> 100	> 100	–	–	–	–
CCCCCCCCCC(O)CC(=O)c1c(O)cccc1O (stereo not drawn)	91.7	39.4	64.8	49.5	44.2	34.9	38.6	40.7	–	38.7	51.6	–	–	–	–
Nc1ncnc2c1ncn2CCCC(c1ccccc1)P(=O)(O)O (stereo not drawn)	> 100	> 100	–	–	–	> 100	> 100	> 100	> 100	> 100	–	–	–	–	–
Cn1cc(-c2nc(-c3c[nH]c4ccncc34)cs2)c2ccccc21	–	2.81	–	–	3.4	–	–	3.26	–	3.55	–	1370	1740	1780	1960
COC(=O)[C@H]1[C@@H](O)[C@@]2(O)c3c(OC)cc(OC)cc3O[C@@]2(c2ccc3c(c2)OCO3)[C@@H]1c1ccccc1	0.0686	0.107	> 50	–	0.0414	3.23	> 50	0.0279	–	> 50	2.34	–	–	–	–
CCCCCCCCCCCCCCCCNCC(O)CN (stereo not drawn)	3.81	4.38	9.36	3.35	–	25.6	12.3	4.72	–	23.7	–	–	–	–	–
COc1cc(OCc2nc3cc(C(F)(F)F)ccc3nc2-c2ccccc2)cc(OC)c1OC	> 100	> 100	> 100	> 100	> 100	> 100	> 100	> 100	> 100	> 100	–	–	–	–	–
Cc1nc2ccccc2c(=O)n1NC(=O)c1ccccc1[N+](=O)[O-]	–	> 100	> 100	> 100	> 100	> 100	–	> 100	> 100	> 100	–	–	–	–	–
O=C1CCCCC/C1=C\c1cccc([N+](=O)[O-])c1	> 100	–	–	> 100	> 100	–	> 100	48.7	39.9	54.8	> 100	–	–	–	–
